Results: PMC5618656, “Interference of Paraben Compounds with Estrogen Metabolism by Inhibition of 17β-Hydroxysteroid Dehydrogenases” (International Journal of Molecular Sciences, 2017)
Read-outs that look alike come from different tables or passages of the source.

What was measured:
[1] = molecular target: T1, 17β-hydroxysteroid dehydrogenase 1 (17β-HSD1) (Homo sapiens, UniProt P14061); assay: biochemical; parameters: species or system HEK-293 (transiently transfected); Radiolabeled estrone to estradiol conversion (200 nM, NADPH) in lysates of 17β-HSD1-transfected cells; TLC and scintillation counting
T1 construct: gene HSD17B1
T1 sequence (P14061 2-328): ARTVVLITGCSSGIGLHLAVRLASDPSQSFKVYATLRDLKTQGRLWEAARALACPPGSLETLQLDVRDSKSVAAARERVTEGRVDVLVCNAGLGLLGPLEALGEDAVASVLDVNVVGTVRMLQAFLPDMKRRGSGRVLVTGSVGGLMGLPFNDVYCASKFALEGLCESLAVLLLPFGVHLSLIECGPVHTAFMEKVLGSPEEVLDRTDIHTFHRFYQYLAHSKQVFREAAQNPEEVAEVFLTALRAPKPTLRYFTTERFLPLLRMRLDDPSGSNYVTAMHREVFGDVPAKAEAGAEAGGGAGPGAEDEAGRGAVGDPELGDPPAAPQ
Description: Lysate activity assays were performed as previously described. Briefly, HEK-293 cells (ATCC) were transiently transfected with expression constructs for human 17β-HSD1 or 17β-HSD2 using the calcium phosphate precipitation method. Lysates of HEK-293 cells expressing 17β-HSD1 or 17β-HSD2 were incubated at 37 °C for 10 min in TS2 buffer (100 mM NaCl, 1 mM EDTA, 1 mM EGTA, 250 mM sucrose, 1 mM MgCl2, 20 mM Tris-HCl, pH 7.4), containing either the inhibitor at the respective concentration or solvent (0.2% DMSO). 17β-HSD1 activity was determined in the presence of 200 nM estrone, including 50 nCi of [2,4,6,7-^3H]-estrone and 500 μM NADPH. Whereas, the 17β-HSD2 activity was performed in the presence of 200 nM estrone, including 50 nCi of [2,4,6,7-^3H]-estradiol and 500 μM NAD+.  Figure 6 (A) Inhibition of 17β-HSD1 activity by parabens. 17β-HSD1 activity was measured in lysates of transiently-transfected HEK-293 cells, using DMSO as a negative, and apigenin as a positive, control. Statistical analyses were performed using one-way ANOVA followed by a Dunnett post-hoc test. […] (B) Concentration-dependent inhibition of 17β-HSD1 by [compound left out]- and heptylparaben. The conversion of estrone to estradiol was measured in lysates of HEK-293 cells transfected with 17β-HSD1 and (C) in intact human COV434 granulosa cells endogenously expressing 17β-HSD1. Results represent the mean ± SD of three independent experiments. To determine 17β-HSD1 activity in COV434 cells, cells were seeded (50,000) into 96-well plates and incubated for 90 min with 200 nM estrone, including 50 nCi of [2,4,6,7-^3H]-estrone in serum-free charcoal treated media containing either the inhibitor at the respective concentration or solvent (0.1% DMSO). Both activity essays were stopped by adding a 1:1 ratio of 2 mM unlabeled estrone and estradiol in methanol. Radiolabeled steroids were obtained from Perkin-Elmer (Boston, MA, USA) whereas normal steroids and cofactors were purchased from Sigma-Aldrich. Estrogens were separated by thin layer chromatography and samples were analyzed using scintillation counting. All data were collected from at least three independent measurements.

[2] = molecular target: T2, 17β-hydroxysteroid dehydrogenase 2 (17β-HSD2) (Homo sapiens, UniProt P37059); assay: biochemical; parameters: species or system HEK-293 (transiently transfected); Radiolabeled estradiol to estrone conversion (200 nM, NAD+) in lysates of 17β-HSD2-transfected cells; TLC and scintillation counting
T2 construct: gene HSD17B2
T2 sequence (P37059 1-387): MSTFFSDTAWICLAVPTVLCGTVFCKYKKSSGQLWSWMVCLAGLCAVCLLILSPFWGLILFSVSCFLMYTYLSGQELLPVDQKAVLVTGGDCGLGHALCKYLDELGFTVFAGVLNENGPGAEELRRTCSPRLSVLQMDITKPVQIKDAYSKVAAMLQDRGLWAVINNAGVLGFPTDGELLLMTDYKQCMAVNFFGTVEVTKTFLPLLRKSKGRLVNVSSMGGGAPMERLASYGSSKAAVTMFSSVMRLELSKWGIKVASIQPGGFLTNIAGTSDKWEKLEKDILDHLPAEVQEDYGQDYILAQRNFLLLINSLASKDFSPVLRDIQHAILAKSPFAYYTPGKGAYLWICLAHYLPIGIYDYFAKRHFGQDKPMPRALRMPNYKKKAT
Description: Lysate activity assays were performed as previously described. Briefly, HEK-293 cells (ATCC) were transiently transfected with expression constructs for human 17β-HSD1 or 17β-HSD2 using the calcium phosphate precipitation method. Lysates of HEK-293 cells expressing 17β-HSD1 or 17β-HSD2 were incubated at 37 °C for 10 min in TS2 buffer (100 mM NaCl, 1 mM EDTA, 1 mM EGTA, 250 mM sucrose, 1 mM MgCl2, 20 mM Tris-HCl, pH 7.4), containing either the inhibitor at the respective concentration or solvent (0.2% DMSO). 17β-HSD1 activity was determined in the presence of 200 nM estrone, including 50 nCi of [2,4,6,7-^3H]-estrone and 500 μM NADPH. Whereas, the 17β-HSD2 activity was performed in the presence of 200 nM estrone, including 50 nCi of [2,4,6,7-^3H]-estradiol and 500 μM NAD+.  Figure 4 (A) Inhibition of estrone formation by parabens in human embryonic kidney (HEK-293) cell lysates expressing human 17β-HSD2. The conversion of estradiol to estrone was measured in lysates of HEK-293 cells transiently transfected with 17β-HSD2 in the presence of 200 nM radiolabeled estradiol and parabens or paraben-like compounds at a final concentration of 20 µM. 17β-HSD2 inhibitor BM13 served as positive control (compound 22 in [18]). Statistical analyses were performed using one-way analysis of variance (ANOVA) test followed by a Dunnett post-hoc test. […] (B) Concentration-dependent inhibition of 17β-HSD2 by ethylparaben and ethyl vanillate. Results represent the mean ± standard deviation (SD) of three independent measurements. To determine 17β-HSD1 activity in COV434 cells, cells were seeded (50,000) into 96-well plates and incubated for 90 min with 200 nM estrone, including 50 nCi of [2,4,6,7-^3H]-estrone in serum-free charcoal treated media containing either the inhibitor at the respective concentration or solvent (0.1% DMSO). Both activity essays were stopped by adding a 1:1 ratio of 2 mM unlabeled estrone and estradiol in methanol. Radiolabeled steroids were obtained from Perkin-Elmer (Boston, MA, USA) whereas normal steroids and cofactors were purchased from Sigma-Aldrich. Estrogens were separated by thin layer chromatography and samples were analyzed using scintillation counting. All data were collected from at least three independent measurements.

[3] = molecular target: T1, 17β-hydroxysteroid dehydrogenase 1 (17β-HSD1); assay: radiolabeled estrone to estradiol conversion in lysates of transfected HEK-293 cells; also intact COV434 cells (IC50 […]); type: biochemical
[4] = molecular target: T2, 17β-hydroxysteroid dehydrogenase 2 (17β-HSD2); assay: radiolabeled estradiol conversion in lysates of transfected HEK-293 cells at […]; also significant at […]; type: cell-based; details: HEK293
[5] = molecular target: T2, 17β-hydroxysteroid dehydrogenase 2 (17β-HSD2); assay: radiolabeled estradiol to estrone conversion in lysates of HEK-293 cells transfected with human […]β-HSD2; type: biochemical
[6] = molecular target: T1, 17β-hydroxysteroid dehydrogenase 1 (17β-HSD1); assay: radiolabeled estrone conversion in lysates of transfected HEK-293 cells, single concentration […]; type: cell-based; details: HEK293
[7] = molecular target: T2, 17β-hydroxysteroid dehydrogenase 2 (17β-HSD2); assay: radiolabeled estradiol conversion in lysates of transfected HEK-293 cells, single concentration […]; type: cell-based; details: HEK293
[8] = molecular target: T1, 17β-hydroxysteroid dehydrogenase 1 (17β-HSD1); assay: radiolabeled estrone to estradiol conversion in lysates of transfected HEK-293 cells; also intact COV434 cells (IC50 […]); type: biochemical; remark: listed apart in the source

SMILES | inhibition at 20 µM [1] [%] | inhibition at 20 µM [2] [%] | also measured
COC(=O)c1ccc(O)cc1 [methylparaben] | 0 | 50 ± 6 | –
O=C(O)c1ccc(O)cc1 [p-hydroxybenzoic acid] | 7 ± 11 | 0 | –
CCCCCCOC(=O)c1ccc(O)cc1 [6-P, hexylparaben] | 80 ± 5 | – | IC50 [3]: 2.6 µM; inhibition at 20 µM [4]: 58%
CCOC(=O)c1ccc(O)cc1 [2-P, ethylparaben] | 7 ± 6 | 74 ± 4 | IC50 [5]: 4.6 µM
CCCCOC(=O)c1ccc(O)cc1 [butylparaben] | 52 ± 10 | 30 ± 7 | –
O=C(OCc1ccccc1)c1ccc(O)cc1 [benzylparaben] | – | – | inhibition at 20 µM [6]: 67%; inhibition at 20 µM [7]: 64%
CC(C)OC(=O)c1ccc(O)cc1 [isopropylparaben] | 32 ± 9 | 60 ± 1 | –
O=C(Oc1ccccc1)c1ccc(O)cc1 [phenylparaben] | 35 ± 1 | – | inhibition at 20 µM [7]: 64%
CCCOC(=O)c1ccc(O)cc1 [propylparaben] | 37 ± 5 | 37 ± 6 | –
CCOC(=O)c1ccc(O)c(OC)c1 [ethyl vanillate] | – | – | IC50 [5]: 1.3 µM
CC(C)COC(=O)c1ccc(O)cc1 [isobutylparaben] | – | 53 ± 7 | inhibition at 20 µM [6]: 65%
CCCCCCCOC(=O)c1ccc(O)cc1 [heptylparaben] | 83 ± 6 | – | IC50 [8]: 1.8 µM; inhibition at 20 µM [7]: 76%
